Columns and labels:
[1] = molecular target: viral α2,3-sialyltransferase (Myxoma virus, UniProt Q9YJT3); format: biochemical; details: LacNAc-O-gr = 100; for Relative Rate (2.7 mM): acceptor 2.7 mM, relative rate of sialic acid transfer, 37° C., pH 6.1
Method: Acceptor (54 nmol), CMP-NANA (40 nmol), and CMP-^3H-NANA (150,000-180,000 dpm) were added to a mixture of cell lysate (16 μL), water (3 μL) and 1 μL of assay buffer (250 mM MES, 0.5% Triton CF54, pH 7.0) in a 0.5 mL microfuge tube. Reaction mixtures were incubated at 37° C., diluted with water to 200 μL and loaded onto a C18 Sep-Pak reverse-phase cartridge which had been pre-equilibrated with 20 mL of MeOH and 20 mL of water. The cartridge was washed with 50 mL of water and the product eluted with 4 mL of MeOH into a scintillation vial. The radioactivity of the MeOH eluates were quantitated by liquid scintillation in 10 mL of EcoLite (+) scintillation cocktail (ICN, Montreal, Quebec, Canada) in a Beckman liquid scintillation counter (LS1801).
Acceptor (54 nmol), CMP-NANA (40 nmol), and CMP-^3H-NANA (150,000-180,000 dpm) were added to a mixture of cell lysate (16 μL), water (3 μL) and assay buffer (250 mM MES, 0.5% Triton CF54, pH 6.1) in a 0.5 mL microfuge tube.

[2] = system: myxoma viral α2,3-sialyl transferase; assay: Transfer of sialic acid (CMP-3H-NANA) to Lewis a and Lewis x oligosaccharide acceptors by viral cell lysate, pH 7.0; format: biochemical, myxoma virus; details: acceptor 54 nmol, 37° C., duplicate experiments
Method: The myxoma viral α2,3-sialyl transferase cell lysate was prepared by a method similar to that set forth in International Patent Application Publication No. WO97/18302^65, which is incorporated herein by reference.
Ten T180 flasks of confluent layers of European rabbit kidney cell (RK13) cells were infected with Brazilian myxoma virus strain, Lausanne (Lu) (ATCC VR-115) isolated Campinas, Brazil, 1949 and Uriarra (Ur) isolated Australian Capital Territory, 1953 (a derivative of Moses strain (ATCC VR-116)). The cells were kept at 37° C. for 24 hours. Twenty-four hours post infection, the cells were detached by scraping and washed with PBS. Cell lysates were prepared by suspension in 20 mL of extraction buffer (50 mM MES, pH 6.1, 0.5% Triton-X100, 100 mM NaCl, 1.5 mM MgCl2, 0.1 mM PMSF, […] aprotinin) at 4° C., for 45 minutes. The lysate was clarified by centrifugation at 2,000 g at 4° C. for 15 minutes. […]
Acceptor (54 nmol), CMP-NANA (40 nmol), and CMP-^3H-NANA (150,000-180,000 dpm) were added to a mixture of cell lysate (16 μL), water (3 μL) and 1 μL of assay buffer (250 mM MES, 0.5% Triton CF54, pH 7.0) in a 0.5 mL microfuge tube. […] The radioactivity of the MeOH eluates were quantitated by liquid scintillation in 10 mL of EcoLite (+) scintillation cocktail (ICN, Montreal, Quebec, Canada) in a Beckman liquid scintillation counter (LS1801). […]

Compound	Relative Rate (2.7 mM) [1]	Relative Vmax [1]	dpm (radioactive transfer to acceptor) ([2]; Incubation time 170 min., total CMP-NANA 176174)	dpm (radioactive transfer to acceptor) ([2]; Incubation time 90 min., total CMP-NANA 152644)
CCCCCCCCO[C@@H]1O[C@H](CO)[C@@H](O[C@@H]2O[C@H](CO)[C@H](O)[C@](C)(O)[C@H]2O)[C@H](O)[C@H]1O [3′-C-methyl-lactose-octyl]	4.1	–	–	–
CCCCCCCCO[C@@H]1O[C@H](CO)[C@@H](O[C@@H]2O[C@H](CO)[C@](C)(O)[C@H](O)[C@H]2O)[C@H](O)[C@H]1O [4′-C-methyl-lactose-octyl]	20	–	–	–
CCCCCCCCO[C@@H]1O[C@H](CO)[C@@H](O[C@@H]2O[C@H](C(C)(C)O)[C@H](O)[C@H](O)[C@H]2O)[C@H](O)[C@H]1NC(C)=O [6′,6′-C-dimethyl-LacNAc-O-octyl]	17	–	–	–
OC[C@H]1O[C@H](Oc2ccccc2)[C@H](O)[C@@H](O)[C@H]1O [Gal-O-phenyl]	<1	–	–	–
COC(=O)CCCCCCCCOC1OC(CO)C(OC2OC(CO)C(O)C(OC3OC(CO)C(O)C(O)C3O)C2O)C(O)C1NC(C)=O (stereo not drawn) [Galα(1→3)-lacNAc-O-gr]	18	–	–	–
COC(=O)CCCCCCCCO[C@@H]1O[C@H](CO)[C@@H](O[C@@H]2O[C@H](CO)[C@H](O[C@H]3O[C@H](CO)[C@H](O)[C@H](O)[C@H]3O)[C@H](O)[C@H]2O)[C@H](O)[C@H]1O [Galα(1→4)-lactose-O-gr]	12	17	–	–
CCCCCCCCO[C@@H]1O[C@H](CO)[C@@H](O)[C@H](O)[C@H]1O [Glc-O-octyl]	<1	–	–	–
COC(=O)CCCCCCCCOC1OC(CO)C(O)C(O)C1NC(C)=O (stereo not drawn) [GlcNAc-O-gr]	<1	–	–	–
CC(=O)N[C@H]1C(O)O[C@H](CO)[C@@H](O[C@@H]2O[C@H](CO)[C@H](O)[C@H](O)[C@H]2O)[C@@H]1O (stereo partly drawn) [LacNAc-OH]	171	–	–	–
COC(=O)CCCCCCCCO[C@@H]1O[C@H](CO)[C@@H](O[C@@H]2O[C@H](CO)[C@H](O)[C@H](O)[C@H]2O)[C@H](O)[C@H]1NC(C)=O [LacNAc—O-gr]	100	100	–	–
COC(=O)CCCCCCCCO[C@@H]1O[C@H](CO)[C@@H](O[C@@H]2O[C@H](CO)[C@H](O)[C@H](O)[C@H]2O)[C@H](O)[C@H]1O [Lactose-O-gr]	90	112	–	–
COC(=O)CCCCCCCCO[C@@H]1O[C@H](CO)[C@@H](O[C@@H]2O[C@@H](C)[C@@H](O)[C@@H](O)[C@@H]2O)[C@H](O[C@@H]2O[C@H](CO)[C@H](O)[C@H](O)[C@H]2O)[C@H]1NC(C)=O [Le^a-gr, 8-methoxycarbonyloctyl β-D-galactopyranosyl-(1→3) [α-L-fucopyranosyl-(1→4)]-β-D-2-acetamide-2-deoxy-glucopyranoside]	50	42	4161/4045	–
COC(=O)CCCCCCCCO[C@@H]1O[C@H](CO)[C@@H](O)[C@H](O[C@@H]2O[C@H](CO)[C@H](O)[C@H](O)[C@H]2O)[C@H]1NC(C)=O [Le^c-O-gr]	79	90	–	–
COC(=O)CCCCCCCCO[C@@H]1O[C@H](CO)[C@@H](O[C@@H]2O[C@H](CO)[C@H](O)[C@H](O)[C@H]2O)[C@H](O[C@@H]2O[C@@H](C)[C@@H](O)[C@@H](O)[C@@H]2O)[C@H]1NC(C)=O [Le^x-gr, 8-methoxycarbonyloctyl α-L-fucopyranosyl-(1→3)-[β-D-galactopyranosyl-(1→4)]-β-D-2-acetamide-2-deoxy-glucopyranoside]	21	30	–	1330/1130
COC(=O)CCCCCCCCO[C@H]1O[C@H](CO)[C@H](O)[C@H](O[C@@H]2O[C@H](CO)[C@H](O)[C@H](O)[C@H]2O)[C@H]1NC(C)=O [T-disaccharide-O-gr]	64	51	–	–

Source: patent US6528274B1, “Method for the production of sialylated oligosaccharides” (priority 1998, dated 2003)
